Laboratory results: publication PMC5118987 (Antimicrobial Agents and Chemotherapy, 2016)
Like-named read-outs stand apart in the source and are kept apart here.

Columns and labels:
[1] = molecular target: T1, HIV-1 IN strand transfer activity (Human immunodeficiency virus type 1 group M subtype B, UniProt P04585); assay: IN strand transfer assay (HTRF); assay type: biochemical; details: purified recombinant HIV-1 IN; mean ± SD, 3 experiments; read-out: IC50 Inhibition of strand transfer
T1 construct: Recombinant IN containing an N-terminal 6His tag was expressed in BL21(DE3) pLysS bacteria; 6His (N); made in house; host or cells: E. coli BL21(DE3) pLysS
Protocol: (§2) The strand transfer activity of IN was measured using an assay based on homogeneous time-resolved fluorescence resonance energy transfer (HTRF) ([34]) and has been previously described in detail ([35]). An HTRF-based 3′-processing assay was performed essentially as described for the IN strand transfer assay using a specially designed nonprocessed donor DNA in the absence of target DNA ([35]).

[2] = molecular target: T2, HIV-1 IN 3′-processing activity (Human immunodeficiency virus type 1 group M subtype B, UniProt P04585); assay: IN 3′-processing assay (HTRF); assay type: biochemical; details: purified recombinant HIV-1 IN; mean ± SD, 5 experiments
T2 construct: Recombinant IN containing an N-terminal 6His tag was expressed in BL21(DE3) pLysS bacteria; 6His (N); made in house; host or cells: E. coli BL21(DE3) pLysS
Protocol: as §2

[3] = system: HIV-1 IIIb; assay: Antiviral assay in MT-2 cells; assay type: cell-based
Protocol: (§1) For the antiviral assay utilizing MT-2 and MT-4 cells, 50 μl of a 2× test concentration of 5-fold serially diluted compound in culture medium with 10% FBS was added to each well of a 96-well plate (9 concentrations) in triplicate. MT-2 and MT-4 cells were infected with HIV-1 IIIb at a multiplicity of infection (MOI) of 0.01 for 3 h. Fifty microliters of infected cell suspension in culture medium with 10% FBS (∼1.5 × 10^4 cells) then was added to each well containing 50 μl of diluted compound. The plates were then incubated at 37°C for 5 days. After 5 days of incubation, 100 μl of CellTiter-Glo reagent (Promega Biosciences, Inc., Madison, WI) was added to each well containing MT-2 or MT-4 cells. Cell lysis was carried out by incubation at room temperature for 10 min and chemiluminescence was read. For compound cytotoxicity assessment, the protocol was identical except that uninfected cells were used and compounds were serially diluted 3-fold.

[4] = Cytotoxicity assay in MT-4 cells; assay type: cell-based; details: human, uninfected MT-4 cells
Protocol: as §1

[5] = system: Influenza B/LEE/40; assay: microbe, parasite or virus in culture; assay type: cell-based; details: NHBE
[6] = system: RSV strain A2; assay: microbe, parasite or virus in culture; assay type: cell-based, respiratory syncytial virus; details: human respiratory syncytial virus, HEp-2
[7] = Cytotoxicity in AD38 cells; details: human
[8] = system: HCV 1b Replicon; assay: Anti-HCV activity, HCV 1b replicon; details: Hepatitis C virus, Huh-7
[9] = system: HIV-1 IIIb; assay: microbe, parasite or virus in culture; details: Human immunodeficiency virus 1, IIIB, MT4
Protocol: Each compound series was prepared several times independently in quadruplicate to capture the variations in Hill slope associated with preparation of compound serial dilutions. The assay was performed in a 384-well format. MT-4 cells were infected in bulk at the same MOI as that described above, and the plates were developed with CellTiter-Glo reagent 5 days postinfection.

[10] = system: HIV-1 BaL; assay: Antiviral assay in primary CD4+ T lymphocytes (p24 ELISA); details: Human immunodeficiency virus 1, BAL
Text: (§3) Freshly isolated human peripheral blood mononuclear cells (PBMCs) were obtained from healthy volunteers (supplied by AllCells, Inc., Alameda, CA). Blood donors were negative for HIV-1, hepatitis B, and hepatitis C viral infections. CD4^+ T lymphocytes were isolated by negative selection using a magnetically labeled antibody cocktail ([sequence] Technologies Inc., Vancouver, Canada) and cultured in RPMI cell culture media (Life Technologies, Grand Island, NY) supplemented with 10% FBS. CD4^+ T cells were activated for 48 h at 37°C by addition of 1 μg/ml phytohemagglutinin (PHA; Sigma, St. Louis, MO) and 5 ng/ml interleukin-2 (IL-2; Roche Diagnostics, Indianapolis, IN).
(§4) A 3-fold serial dilution of test compounds in RPMI medium was added to triplicate wells and incubated at 37°C for 5 days. Human monocytes were seeded on 96-well plates at a density of 3 × 10^5 cells per well, differentiated into adherent macrophages, and then infected with HIV-1 BaL virus in 50 μl RPMI for 3 h at 37°C. […] The supernatants derived from the CD4^+ T-cell and macrophage cultures were harvested 6 and 12 days postinfection, respectively, and the amount of HIV present was quantified by p24 enzyme-linked immunosorbent assay (ELISA) (PerkinElmer, Waltham, MA).

[11] = system: HIV-1 BaL; assay: Antiviral assay in monocyte-derived macrophages (p24 ELISA); details: Human immunodeficiency virus 1, BAL, Macrophage
Text: as §3, §4

[12] = system: HIV-1 clinical isolates; assay: Antiviral assay against HIV-1 clinical isolates in fresh human PBMCs (RT endpoint)
[13] = system: HIV-1 integration in MT-2 cells (HIV-1 IIIb); details: HIV-1 IIIb-infected MT-2, relative to mock-treated control
Protocol: Quantification of 2-long terminal repeat (LTR) circles, late reverse transcription products, and integration junctions was adapted from a previously described method ([30]). […] Three hours after viral adsorption, the infected cells were washed twice with 20 ml of RPMI 1640 medium containing 10% FBS and antibiotics and seeded in 6-well plates in 2 ml of culture medium at 1 × 10^6 cells per well. […] These plates were incubated at 37°C for either 12 h (for late reverse transcription product quantification) or 24 h (for 2-LTR circle and Alu-LTR product quantification), after which time the cells were harvested for total DNA isolation. DNA was extracted from each well using the QIAamp DNA minikit (Qiagen, Valencia, CA) and collected as a 100-μl eluate. TaqMan real-time PCR-quantified 2-LTR junctions (2-LTR circles), late reverse transcription products, and integration junctions (Alu-LTR) were normalized to the level of host globin gene in each sample. Quantification by PCR was performed on the ViiA 7 real-time PCR system (Life Technologies, Grand Island, NY).

Molecule `O=C(NCc1c(F)cc(F)cc1F)c1cn2c(c(O)c1=O)C(=O)N1[C@H]3CC[C@H](C3)O[C@@H]1C2` [BIC, Bictegravir] has an IC50 [1] of 7.5 ± 0.3 nM, an IC50 [2] of 241 ± 51 nM and an EC50 ([3]; Human immunodeficiency virus 1, IIIB, MT2, T-cell lines and primary human T lymphocytes, read-out: 50% effective concentrations) of 1.5 to 2.4 nM. For the same molecule, the EC50 ([3]; Human immunodeficiency virus 1, MT2, 120 h, MT-2 cells, HIV-1 IIIb, 5 days, read-out: EC50) was 1.5 ± 0.2 nM, the CC50 at 5 days [4] was 3.66 µM and the EC50 [5] was 37.2 µM. For the same molecule, the EC50 [6] was greater than 50 µM, the CC50 at 5 days [7] was greater than 50 µM and the EC50 [8] was greater than 44 µM. For the same molecule, the EC50 [9] was 1.9 ± 0.6 nM, the EC50 [10] was 1.5 ± 0.3 nM and the EC50 [11] was 6.6 ± 4.1 nM. For the same molecule, the EC50 ([12]; Human immunodeficiency virus 1, BAL, PBMC, HIV-1 subtype B isolate BaL, human PBMCs) was 0.35 ± 0.12 nM, the EC50 ([12]; Human immunodeficiency virus 1, PBMC, HIV-1 subtype A isolate 92RW016, human PBMCs) was 0.71 ± 0.26 nM and the EC50 ([12]; Human immunodeficiency virus 1, PBMC, HIV-1 subtype A isolate 92UG037, human PBMCs) was 1.5 ± 0.6 nM. The EC50 ([12]; Human immunodeficiency virus 1, PBMC, HIV-1 subtype B isolate 89BZ_167, human PBMCs) was 1 ± 0.5 nM, the EC50 ([12]; Human immunodeficiency virus 1, PBMC, HIV-1 subtype B isolate 91US001, human PBMCs) was 0.89 ± 0.17 nM and the EC50 ([12]; Human immunodeficiency virus 1, PBMC, HIV-1 subtype B isolate 91US004, human PBMCs) was 1.2 ± 0.4 nM. The EC50 ([12]; Human immunodeficiency virus 1, PBMC, HIV-1 subtype C isolate 93IN905, human PBMCs) was 0.15 ± 0.01 nM, the EC50 ([12]; Human immunodeficiency virus 1, PBMC, HIV-1 subtype C isolate 98US_MSC5016, human PBMCs) was 1.2 ± 0.2 nM and the EC50 ([12]; Human immunodeficiency virus 1, PBMC, HIV-1 subtype D isolate 98UG_57128, human PBMCs) was 0.33 ± 0.01 nM. The EC50 ([12]; Human immunodeficiency virus 1, PBMC, HIV-1 subtype E isolate 96TH_M02138, human PBMCs) was 0.51 ± 0.17 nM, the EC50 ([12]; Human immunodeficiency virus 1, PBMC, HIV-1 subtype E isolate 96TH_NI1046, human PBMCs) was 0.25 ± 0.06 nM and the EC50 ([12]; Human immunodeficiency virus 1, PBMC, HIV-1 subtype F isolate 93BR020, human PBMCs) was 1.2 ± 0.5 nM. For the same molecule, the EC50 ([12]; Human immunodeficiency virus 1, PBMC, read-out: mean EC50 against clinical isolates, 14 HIV-1 isolates and one HIV-2 isolate, human PBMCs) was 0.81 nM, the EC50 ([12]; Human immunodeficiency virus 1, PBMC, read-out: range of EC50s against clinical isolates, 14 HIV-1 isolates and one HIV-2 isolate, human PBMCs) was 0.04 to 1.7 nM and the “reduction of authentic integration products in infected cells” value [13] was 100 fold.
